From PubChem BioAssay (NCI)
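Following 48 hours of exposure in 96-well plates, responses at five concentrations were used to interpolate endpoints linearly. At the TGI there is no net growth.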

What was measured:
Experiment in all cases: NCI tumour cell line growth inhibition, 48 h
[1] = tested on: 786-0 renal
[2] = tested on: A498 renal
[3] = tested on: A549 NSCLC
[4] = tested on: ACHN renal
[5] = tested on: BT-549 breast
[6] = tested on: CAKI-1 renal
[7] = tested on: CCRF-CEM leukemia
[8] = tested on: COLO 205 colon
[9] = tested on: DLD-1 colon
[10] = tested on: DMS 114 small cell lung
[11] = tested on: DMS 273 small cell lung
[12] = tested on: DU-145 prostate
[13] = tested on: EKVX NSCLC
[14] = tested on: HCC-2998 colon
[15] = tested on: HCT-116 colon
[16] = tested on: HCT-15 colon
[17] = tested on: HL-60(TB) leukemia
[18] = tested on: HOP-18 NSCLC
[19] = tested on: HOP-62 NSCLC
[20] = tested on: HOP-92 NSCLC
[21] = tested on: HS 578T breast
[22] = tested on: HT29 colon
[23] = tested on: IGROV1 ovarian
[24] = tested on: K-562 leukemia
[25] = tested on: KM12 colon
[26] = tested on: KM20L2 colon
[27] = tested on: LOX IMVI melanoma
[28] = tested on: LXFL 529 NSCLC
[29] = tested on: M14 melanoma
[30] = tested on: M19-MEL melanoma
[31] = tested on: MALME-3M melanoma
[32] = tested on: MCF7 breast
[33] = tested on: MDA-MB-231 breast
[34] = tested on: MDA-MB-435
[35] = tested on: MDA-N
[36] = tested on: MOLT-4 leukemia
[37] = tested on: NCI-H226 lung
[38] = tested on: NCI-H23 lung
[39] = tested on: NCI-H460 lung
[40] = tested on: NCI-H522 lung
[41] = tested on: NCI/ADR-RES ovarian
[42] = tested on: OVCAR-3 ovarian
[43] = tested on: OVCAR-4 ovarian
[44] = tested on: OVCAR-5 ovarian
[45] = tested on: OVCAR-8 ovarian
[46] = tested on: P388 leukemia
[47] = tested on: P388/ADR leukemia
[48] = tested on: PC-3 prostate
[49] = tested on: RPMI-8226 leukemia
[50] = tested on: RXF 393 renal
[51] = tested on: RXF-631 renal
[52] = tested on: SF-268 CNS
[53] = tested on: SF-295 CNS
[54] = tested on: SF-539 CNS
[55] = tested on: SK-MEL-2 melanoma
[56] = tested on: SK-MEL-28 melanoma
[57] = tested on: SK-MEL-5 melanoma
[58] = tested on: SK-OV-3 ovarian
[59] = tested on: SN12C renal
[60] = tested on: SN12K1 renal
[61] = tested on: SNB-19 CNS
[62] = tested on: SNB-75 CNS
[63] = tested on: SNB-78 CNS
[64] = tested on: SR leukemia
[65] = tested on: SW-620 colon
[66] = tested on: T-47D breast
[67] = tested on: TK-10 renal
[68] = tested on: U251 CNS
[69] = tested on: UACC-257 melanoma
[70] = tested on: UACC-62 melanoma
[71] = tested on: UO-31 renal

CCOC(=O)/C(=C\c1ccccc1)C(=O)CCN1CCOCC1
TGI [1]: 21.9 µM | TGI [2]: 31.1 µM | TGI [3]: 53.1 µM | TGI [4]: 13.4 µM | TGI [5]: 33.6 µM | TGI [6]: 9.51 µM | TGI [7]: 3.95 µM | TGI [8]: 8.93 µM | TGI [9]: 6.96 µM | TGI [10]: 14.6 µM | TGI [11]: 27.3 µM | TGI [12]: 39.2 µM | TGI [13]: 34.7 µM | TGI [14]: 32.6 µM | TGI [15]: 34.9 µM | TGI [16]: 9.63 µM | TGI [17]: 3.38 µM | TGI [18]: 28.6 µM | TGI [19]: 40.8 µM | TGI [20]: 17.2 µM | TGI [21]: > 100 µM | TGI [22]: 25.1 µM | TGI [23]: 29.9 µM | TGI [24]: 4.87 µM | TGI [25]: 23.1 µM | TGI [26]: 30.9 µM | TGI [27]: 8.54 µM | TGI [28]: 3.52 µM | TGI [29]: 18 µM | TGI [30]: 11.8 µM | TGI [31]: 7.85 µM | TGI [32]: 23.8 µM | TGI [33]: 27.1 µM | TGI [34]: 40.1 µM | TGI [35]: 18.7 µM | TGI [36]: 5.3 µM | TGI [37]: 45.9 µM | TGI [38]: 24.9 µM | TGI [39]: 30 µM | TGI [40]: 3.43 µM | TGI [41]: 32.5 µM | TGI [42]: 18.6 µM | TGI [43]: 33.6 µM | TGI [44]: 31.8 µM | TGI [45]: 18.4 µM | TGI [46]: 3.66 µM | TGI [47]: > 21.7 µM | TGI [48]: 24.7 µM | TGI [49]: 6.07 µM | TGI [50]: 6.09 µM | TGI [51]: 28.8 µM | TGI [52]: 27.8 µM | TGI [53]: 38.3 µM | TGI [54]: 16 µM | TGI [55]: 42.4 µM | TGI [56]: 10.1 µM | TGI [57]: 25.3 µM | TGI [58]: 50.5 µM | TGI [59]: 19.7 µM | TGI [60]: 19.4 µM | TGI [61]: 51.5 µM | TGI [62]: 38.3 µM | TGI [63]: 36.5 µM | TGI [64]: 9.11 µM | TGI [65]: 5.19 µM | TGI [66]: 40.5 µM | TGI [67]: 19.9 µM | TGI [68]: 21.6 µM | TGI [69]: 11 µM | TGI [70]: 12.5 µM | TGI [71]: 31.2 µM
